From EP4678638A1, “NEW E3 UBIQUITIN LIGASE LIGAND, PROTEIN DEGRADATION AGENT AND USE THEREOF” (priority 2023, dated 2024)
pIC50: −log10 of the molar value.

What was measured:
H1975 = experiment: CCK-8 proliferation, NCI-H1975 (H1975); format: cell-based, Human; settings: Homo sapiens, NCI-H1975; CCK-8; 96 hours; read-out: Inhibitory activity (IC50) on tumor cell proliferation, H1975
Summary of the method: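 CCK-8 viability readout; IC50 from growth-inhibition curve fitting. Cells plated, dosed 24h later with a 10-point series, top 10µM, 5-fold steps. Culture at 37°C, 5% CO2.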

EGFR = experiment: Western blot degradation of EGFR (H1975 Cell); format: cell-based, Human; settings: Table D2
Protocol: Conventional Western blot assay was performed to evaluate the effects of the compounds of the present disclosure on the expression of target proteins in cells.
(1) Cell Seeding and Protein Harvesting: The selected cells were processed according to the cell seeding procedure and protein harvesting procedure in Table III-2. Table III-2 Cell Seeding and Protein Harvesting Procedures
(2) To the collected supernatant, 5X SDS sample loading buffer was added, followed by denaturation at 95°C for 5 minutes. The denatured samples were then separated by SDS-PAGE electrophoresis on a polyacrylamide gel. Proteins were transferred to a nitrocellulose membrane (0.45 µm NC membrane), blocked with blocking buffer at room temperature for 1 hour, and subjected to antibody incubation and development procedures according to the antibody manufacturer's instructions (Cell Signaling Technology).
Half-Maximal Degradation Concentration value (the drug concentration required for degrading proteins by 50%, abbreviated as DC50) reads method: comparing the grayscale values of Western blot bands from drug-treated samples with those from blank DMSO-treated controls, and identifying the drug concentration range at which the grayscale value is half that of the DMSO-treated control bands.
DC50 values can be calculated using ImageJ software to measure grayscale values of Western blot bands from drug-treated samples. The concentration-response curve is fitted to estimate the drug concentration corresponding to half the grayscale value.
Target protein remaining (%) refers to the percentage of target protein remaining in hPBMC cells after treatment with protein degrader compounds.
Calculation method for target protein remaining (%): Use ImageJ software to measure grayscale values of Western blot bands from drug (protein degrader)-treated samples. The grayscale value of drug-treated bands is divided by that of internal control protein bands, and the resulting quotient is normalized to obtain the relative percentage of remaining target protein after protein degrader treatment.
Target protein degradation rate (%) = 100% - target protein remaining (%).

pIC50 (H1975)	SMILES	Degradation of substrate protein EGFR (substrate protein remaining %) (EGFR)
7.30 to 8.00	O=C1CCC(c2ccc(CN3C[C@@H]4C[C@H]3CN4c3ccc(-c4cc(F)c5c(c4)C(=O)N(C(C(=O)Nc4nccs4)c4ncn6c4CCC6)C5)cc3)cc2)C(=O)N1 (stereo partly drawn) [GT-05115, 2-(6,7-dihydro-5H-pyrrolo[1,2-c]imidazol-1-yl)-2-(6-(4-((1S,4S)-5-(4-(2,6-dioxopiperidin-3-yl)benzyl)-2,5-diazabicyclo[2.2.1]heptan-2-yl)phenyl)-4-fluoro-1-oxoisoindolin-2-yl)-N-(thiazol-2-yl)acetamide]	A (A is defined as 0% ≤ substrate protein remaining % ≤ 80%)
7.30 to 8.00	O=C1CCN(c2ccc(CN3C[C@@H]4C[C@H]3CN4c3ccc(-c4cc(F)c5c(c4)C(=O)N(C(C(=O)Nc4nccs4)c4ncn6c4CCC6)C5)cc3)cc2)C(=O)N1 (stereo partly drawn) [GT-05116, 2-(6,7-dihydro-5H-pyrrolo[1,2-c]imidazol-1-yl)-2-(6-(4-((1S,4S)-5-(4-(2,4-dioxotetrahydropyrimidin-1(2H)-yl)benzyl)-2,5-diazabicyclo[2.2.1]heptan-2-yl)phenyl)-4-fluoro-1-oxoisoindolin-2-yl)-N-(thiazol-2-yl)acetamide]	A (A is defined as 0% ≤ substrate protein remaining % ≤ 80%)
7.30 to 8.00	O=C1CCN(c2cccc(CN3C[C@@H]4C[C@H]3CN4c3ccc(-c4cc(F)c5c(c4)C(=O)N(C(C(=O)Nc4nccs4)c4ncn6c4CCC6)C5)cc3)c2)C(=O)N1 (stereo partly drawn) [GT-05117, 2-(6,7-dihydro-5H-pyrrolo[1,2-c]imidazol-1-yl)-2-(6-(4-((1S,4S)-5-(3-(2,4-dioxotetrahydropyrimidin-1(2H)-yl)benzyl)-2,5-diazabicyclo[2.2.1]heptan-2-yl)phenyl)-4-fluoro-1-oxoisoindolin-2-yl)-N-(thiazol-2-yl)acetamide]	A (A is defined as 0% ≤ substrate protein remaining % ≤ 80%)
7.00 to 7.30	O=C1CCC(Nc2cccc(CN3C[C@@H]4C[C@H]3CN4c3ccc(-c4cc(F)c5c(c4)C(=O)N(C(C(=O)Nc4nccs4)c4ncn6c4CCC6)C5)cc3)c2)C(=O)N1 (stereo partly drawn) [GT-05118, 2-(6,7-dihydro-5H-pyrrolo[1,2-c]imidazol-1-yl)-2-(6-(4-((1S,4S)-5-(3-((2,6-dioxopiperidin-3-yl)amino)benzyl)-2,5-diazabicyclo[2.2.1]heptan-2-yl)phenyl)-4-fluoro-1-oxoisoindolin-2-yl)-N-(thiazol-2-yl)acetamide]	A (A is defined as 0% ≤ substrate protein remaining % ≤ 80%)
7.30 to 8.00	O=C1CCN(c2ccc(CN3C[C@@H]4C[C@H]3CN4c3ccc(-c4cc(F)c5c(c4)C(=O)N(C(C(=O)Nc4nccs4)c4ncn6c4CCC6)C5)cc3)nc2)C(=O)N1 (stereo partly drawn) [GT-05119, 2-(6,7-dihydro-5H-pyrrolo[1,2-c]imidazol-1-yl)-2-(6-(4-((1S,4S)-5-((5-(2,4-dioxotetrahydropyrimidin-1(2H)-yl)pyridin-2-yl)methyl)-2,5-diazabicyclo[2.2.1]heptan-2-yl)phenyl)-4-fluoro-1-oxoisoindolin-2-yl)-N-(thiazol-2-yl)acetamide]	A (A is defined as 0% ≤ substrate protein remaining % ≤ 80%)
	CC(C)n1nc(N2CCC(N3CCN(Cc4ccc(N5CCC(=O)NC5=O)cc4)CC3)CC2)c2cnc(Nc3ccnc(-c4cnn(S(=O)(=O)C5CC5)c4)n3)cc21 [GT-06079, 1-(4-((4-(1-(6-((2-(1-(cyclopropylsulfonyl)-1H-pyrazol-4-yl)pyrimidin-4-yl)amino)-1-isopropyl-1H-pyrazolo[4,3-c]pyridin-3-yl)piperidin-4-yl)piperazin-1-yl)methyl)phenyl)dihydropyr imidine-2,4(1H,3H)-dione]	A (A is defined as 0% ≤ substrate protein remaining % ≤ 80%)
	CC(C)n1nc(N2CCC(N3CCN(Cc4cccc(NC5CCC(=O)NC5=O)c4)CC3)CC2)c2cnc(Nc3ccnc(-c4cnn(S(=O)(=O)C5CC5)c4)n3)cc21 (centres unmarked) [GT-06083, 3-((3-((4-(1-(6-((2-(1-(cyclopropylsulfonyl)-1H-pyrazol-4-yl)pyrimidin-4-yl)amino)-1-isopropyl-1H-pyrazolo[4,3-c]pyridin-3-yl)piperidin-4-yl)piperazin-1-yl)methyl)phenyl)amino)pip eridine-2,6-dione]	A (A is defined as 0% ≤ substrate protein remaining % ≤ 80%)
	COC1CCN(c2nccc(Nc3cc4c(cn3)c(N3CCC(N(C)Cc5ccc(C6CCC(=O)NC6=O)cc5)CC3)nn4C(C)C)n2)CC1 (centres unmarked) [GT-06120, 3-(4-(((1-(1-isopropyl-6-((2-(4-methoxypiperidin-1-yl)pyrimidin-4-yl)amino)-1H-pyrazolo[4,3-c]pyridin-3-yl)piperidin-4-yl)(methyl)amino)methyl)phenyl)piperidine-2,6-dione]	A (A is defined as 0% ≤ substrate protein remaining % ≤ 80%)
	COC1CCN(c2nccc(Nc3cc4c(cn3)c(N3CCC(N(C)Cc5ccc(N6CCC(=O)NC6=O)cc5)CC3)nn4C(C)C)n2)CC1 [GT-06121, 1-(4-(((1-(1-isopropyl-6-((2-(4-methoxypiperidin-1-yl)pyrimidin-4-yl)amino)-1H-pyrazolo[4,3-c]pyridin-3-yl)piperidin-4-yl)(methyl)amino)methyl)phenyl)dihydropyrimidine-2,4(1H,3H)-dione]	A (A is defined as 0% ≤ substrate protein remaining % ≤ 80%)
	COC1CCN(c2nccc(Nc3cc4c(cn3)c(N3CCC(N(C)Cc5cccc(N6CCC(=O)NC6=O)c5)CC3)nn4C(C)C)n2)CC1 [GT-06122, 1-(3-(((1-(1-isopropyl-6-((2-(4-methoxypiperidin-1-yl)pyrimidin-4-yl)amino)-1H-pyrazolo[4,3-c]pyridin-3-yl)piperidin-4-yl)(methyl)amino)methyl)phenyl)dihydropyrimidine-2,4(1H,3H)-dione]	A (A is defined as 0% ≤ substrate protein remaining % ≤ 80%)
	COC1CCN(c2nccc(Nc3cc4c(cn3)c(N3CCC(N(C)Cc5cccc(NC6CCC(=O)NC6=O)c5)CC3)nn4C(C)C)n2)CC1 (centres unmarked) [GT-06123, 3-((3-(((1-(1-isopropyl-6-((2-(4-methoxypiperidin-1-yl)pyrimidin-4-yl)amino)-1H-pyrazolo[4,3-c]pyridin-3-yl)piperidin-4-yl)(methyl)amino)methyl)phenyl)amino)piperidine-2,6-dione]	A (A is defined as 0% ≤ substrate protein remaining % ≤ 80%)
	O=C1CCN(c2ccc(CN3C4CCC3CN(c3ccc(-c5cc(F)c6c(c5)C(=O)N(C(C(=O)Nc5nccs5)c5ncn7c5CCC7)C6)cc3)C4)cn2)C(=O)N1 (centres unmarked) [GT-06256, 2-(6,7-dihydro-5H-pyrrolo[1,2-c]imidazol-1-yl)-2-(6-(4-(8-((6-(2,4-dioxotetrahydropyrimidin-1(2H)-yl)pyridin-3-yl)methyl)-3,8-diazabicyclo[3.2.1]octan-3-yl)phenyl)-4-fluoro-1-oxoisoindolin-2-yl)-N-(thiazol-2-yl)acetamide]	A (A is defined as 0% ≤ substrate protein remaining % ≤ 80%)
	CN(Cc1ccc(N2CCC(=O)NC2=O)cc1)C1CCN(c2ccc(Nc3ncc4nc(Nc5ccccc5)n(C5CCCC5)c4n3)cc2)CC1 [GT-07092, 1-(4-(((1-(4-((9-cyclopentyl-8-(phenylamino)-9H-purin-2-yl)amino)phenyl)piperidin-4-yl)(methyl)amino)methyl)phenyl)dihydropyrimidine-2,4(1H,3H)-dione]	A (A is defined as 0% ≤ substrate protein remaining % ≤ 80%)
	CN(Cc1ccc(N2CCC(=O)NC2=O)cn1)C1CCN(c2ccc(Nc3ncc4nc(Nc5ccccc5)n(C5CCCC5)c4n3)cc2)CC1 [GT-07093, 1-(6-(((1-(4-((9-cyclopentyl-8-(phenylamino)-9H-purin-2-yl)amino)phenyl)piperidin-4-yl)(methyl)amino)methyl)pyridin-3-yl)dihydropyrimidine-2,4(1H,3H)-dione]	A (A is defined as 0% ≤ substrate protein remaining % ≤ 80%)
	CN(Cc1cccc(NC2CCC(=O)NC2=O)c1)C1CCN(c2ccc(Nc3ncc4nc(Nc5ccccc5)n(C5CCCC5)c4n3)cc2)CC1 (centres unmarked) [GT-07094, 3-((3-(((1-(4-((9-cyclopentyl-8-(phenylamino)-9H-purin-2-yl)amino)phenyl)piperidin-4-yl)(methyl)amino)methyl)phenyl)amino)piperidine-2,6-dione]	A (A is defined as 0% ≤ substrate protein remaining % ≤ 80%)
